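Method: 48-hour compound exposure of cells in 96-well plates, five concentrations, linear interpolation of endpoints. TGI is the concentration that stops growth completely.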
Key:
Assay in all cases: inhibition of tumour cell growth, NCI panel, 48 h
[1] = system: SW-620 colon
[2] = system: SK-OV-3 ovarian
[3] = system: KM12 colon
[4] = system: HL-60(TB) leukemia
[5] = system: SN12C renal
[6] = system: SK-MEL-2 melanoma
[7] = system: SR leukemia
[8] = system: TK-10 renal
[9] = system: CCRF-CEM leukemia
[10] = system: IGROV1 ovarian
[11] = system: NCI-H226 lung
[12] = system: SF-268 CNS
[13] = system: HCT-15 colon
[14] = system: M14 melanoma
[15] = system: MDA-N
[16] = system: SK-MEL-5 melanoma
[17] = system: A498 renal
[18] = system: COLO 205 colon
[19] = system: HOP-62 NSCLC
[20] = system: RPMI-8226 leukemia

Row | SMILES | TGI [1] [µM] | TGI [2] [µM] | TGI [3] [µM] | TGI [4] [µM] | TGI [5] [µM] | TGI [6] [µM] | TGI [7] [µM] | TGI [8] [µM] | TGI [9] [µM] | TGI [10] [µM] | TGI [11] [µM] | TGI [12] [µM] | TGI [13] [µM] | TGI [14] [µM] | TGI [15] [µM] | TGI [16] [µM] | TGI [17] [µM] | TGI [18] [µM] | TGI [19] [µM] | TGI [20] [µM]
1 | CC12CCC(=O)N1c1cncnc1N2 (configuration not stated) | > 10 | > 10 | > 10 | > 10 | > 10 | > 10 | > 10 | > 10 | > 10 | > 10 | > 10 | > 10 | > 10 | > 10 | > 10 |  |  |  |  | 
2 | NS(=O)(=O)c1ccc(Nc2c3ccccc3nc3c(C(=O)N4CCN(CCO)CC4)cccc23)cc1 | > 100 | > 100 | > 100 | 65.5 | > 100 | > 100 | > 100 | > 100 | > 100 | > 100 | > 100 | > 100 | > 100 | > 100 |  | > 100 | > 100 | > 100 | > 100 | 
3 | CCOC(=O)C1(C#N)C(=O)c2cc[n+](CC[n+]3ccc4c(c3)C(=O)C(C#N)(C(=O)OCC)C4=O)cc2C1=O (configuration not stated) | > 100 | > 100 | > 100 | > 100 | > 100 | > 100 |  |  | > 100 | > 100 | > 100 | > 100 | > 100 | > 100 | > 100 | 38.5 | > 100 |  |  | > 100
4 | CN(C)Cc1cc(C(=O)/C=C/c2ccc(Cl)c(Cl)c2)cc(CN(C)C)c1O | 3.19 |  | 4.73 | > 100 | 7.83 |  |  |  | 11.7 | 12.4 | 13.5 | 13.2 | 12.7 | 4.34 | 10.9 | 3.37 | 11.1 | 2.65 | 6.45 | > 100
5 | CC(C)CCNC(=O)C(CC(C)C)NC(=O)[C@H]1O[C@@H]1C(=O)O (some centres not stated) | > 100 | > 100 | > 100 |  | > 100 |  |  |  | > 100 | > 100 | > 100 | > 100 | > 100 | > 100 | > 100 | > 100 | > 100 | > 100 | > 100 | 
6 | COC(=O)c1cc(=O)n(-c2ccc3nn(C)nc3c2)cc1C(=O)OC | > 100 | > 100 | > 100 |  | > 100 | > 100 | > 100 | > 100 | > 100 | > 100 | > 100 | > 100 | > 100 | > 100 | > 100 | > 100 | > 100 | > 100 | > 100 | > 100
7 | COC(=O)[C@@]1(C)C(=O)CC[C@@H]1C=O | > 100 | > 100 | > 100 | > 100 | > 100 | > 100 | > 100 | > 100 | > 100 | > 100 | > 100 | > 100 | > 100 | > 100 |  | > 100 | > 100 | > 100 | > 100 | > 100
8 | COc1ccc2nc3c([N+](=O)[O-])ccc4c3c(c2c1)NCCN4CCN(C)C | 1.98 | 0.973 | 1.46 |  | 3.28 | 2.92 | 7.24 | 4.75 | 4 | 3.15 | 7.13 | 2.41 | 1.94 | 1.71 | 1.99 | 2.08 | 3.12 |  | 3.44 | 4.62
9 | Cc1ccc(OCC2OC(n3cnc4nc(Nc5ccc(Cl)c(Cl)c5)nc(Cl)c43)CC2Oc2ccc(C)cc2)cc1 (configuration not stated) | > 100 | > 100 | > 100 |  | > 100 | > 100 |  | > 100 | > 100 | > 100 | > 100 | > 100 | > 100 | > 100 | > 100 | > 100 |  | > 100 | > 100 | > 100
10 | COc1ccc2[nH]c3c(c2c1)CC(=O)N1CCCC(CC3O)C1 (configuration not stated) | > 100 | > 100 | > 100 |  | > 100 | > 100 |  | > 100 |  | > 100 | > 100 | > 100 | > 100 |  | > 100 | > 100 | > 100 | > 100 |  | > 100
11 | O=[N+]([O-])c1ccc(N/N=C2/CC3=C2CCCCCCCCCC3)c([N+](=O)[O-])c1 | > 100 | > 100 | > 100 |  | > 100 | > 100 |  | > 100 | > 100 | > 100 | > 100 | > 100 | > 100 | > 100 | > 100 | > 100 | > 100 | > 100 | > 100 | > 100
12 | O=C(O)CC(NC(=O)/C(=C/c1ccccc1)NC(=O)c1ccccc1)C(=O)O (configuration not stated) | > 100 | > 100 | > 100 | > 100 | > 100 | > 100 |  | > 100 | > 100 | > 100 | > 100 | > 100 | > 100 | > 100 | > 100 | > 100 | > 100 | > 100 | > 100 | > 100
13 | O=C(Cc1ccccc1)NN1C(=O)/C(=C\c2cccc([N+](=O)[O-])c2)SC1=Nc1ccccc1 | > 100 | > 100 | > 100 |  | > 100 | > 100 |  | > 100 |  | > 100 | > 100 | > 100 | > 100 | > 100 | > 100 | > 100 | > 100 | > 100 | > 100 | > 100

Reference: PubChem BioAssay (NCI)
